This note sets out measurements from patent US6355785B1, “Guanosine-rich oligonucleotide integrase inhibitors” (Aronex Pharmaceuticals, Inc., priority 1993, dated 2002).

Series [1] relates to Vesicular Stomatitis virus.
Details of series [2]: species or system HIV-positive human patients. As to conditions: human, in vivo. As to the method: Four HIV-infected patients/group were dosed with AR177 at 0.75 mg/kg and […], and two HIV-infected patients were dosed so far with AR177 at 3.0 mg/kg by intravenous infusion over two hours.
Blood was collected in EDTAp coated tubes at 0.25, 05, 1, 2, 2.05, 3, 3.5, 4, 6, 8, 11, 14, 26, 48, 98, and 122 hours following initiation of drug administration. Plasma was obtained by low speed centrifugation of the blood, and was stored frozen until analyzed by HPLC for AR177 concentration. The concentration of AR177 was determined in patient plasma using a validated anion-exchange HPLC method at the Division of Clinical Pharmacy of the University of California, San Francisco. This method has a limit of quantitation of 15 ng/mL in human plasma.
Pharmacokinetic parameters were calculated using PKAnalyst software (MicroMath, Salt Lake City, Utah). The pharmacokinetic data best fit a two compartment model for all of the patients. The alpha and beta half-lives were almost identical in each of the patients, based on the software interpretation of the AR177 plasma concentration versus time plot (FIGS. 56-59). For this reason, only one half-life is reported.

Another series addresses T1, SIV integrase (Simian immunodeficiency virus, UniProt P05896).
T1 construct: Purified recombinant wild-type FIV and SIV integrases were generous gifts; purchased gift of Dr. R. Craigie (NIDDK) (not bought)
The series can be described thus: SIV integrase 3′-processing assay. It is filed as biochemical.

On the set-up of series [3]: species or system cynomolgus monkeys. The following applies: cynomolgus monkey, in vivo; for AR177 plasma (CMAX): iv. The method, then:
Dosing. Twelve experimentally naive cynomolgus monkeys were assigned to four groups of three animals each. Prior to dosing, each animal was lightly sedated with a combination of ketamine (1 0 mg/kg) and diazepam (0.5 mg/kg), and a catheter was introduced into the femoral artery for recording central arterial pressure. Monkeys were given a single intravenous infusion of 5, 20, or 50 mg AR177/kg or saline over ten minutes through a cephalic vein catheter using a Harvard infusion pump. Arterial blood samples were drawn at −10, +10, +20, +40, +60 and +120 minutes relative to the initiation of infusion into EDTA-containing tubes for hematology, complement factors, coagulation assay, serum chemistry, and plasma AR177 determination. At 24 hours post-infusion, blood was drawn via the femoral vein into EDTA-containing tubes for these same parameters. The concentration of AR177 in dosing solutions was confirmed post experiment by absorbance at 280 nm on a spectrophotometer. For the determination of AR177 by HPLC, the plasma fraction was obtained by low speed centrifugation of blood, and stored at −20° C. until used. Electrocardiograms (ECGs), central pressure, and heart rate were recorded continuously for 120 minutes following the initiation of doing. Table E-1 summarizes the study design. The animals were observed twice daily pharmacotoxic signs and general health beginning two days before dosing and for seven days following dosing. The monkeys were not necropsied at the end of the study.
HPLC analysis of AR177 plasma concentration. AR177 was assayed in the plasma using an anion-exchange HPLC method on a Waters HPLC system with a 626 pump, 996 photodiode array detector, 717 autosampler and Millennium system software controlled by an NEC Image 466 computer. Buffer A consisted of 0.1 M Tris base, 20% methanol, pH 12, and Buffer B consisted of 0.1 M Tris base, 1.0 M NaBr, pH 12. The anion-exchange column (Gen-Pak Fax column) was equilibrated at 80% buffer A/20% buffer B for 30 minutes before each HPLC run. Fifty microliters of 0.2˜filtered, neat plasma were analyzed per run. The elusion conditions were: a) five-minute isoaatic run at 80% A/20% B. during which the majority of the plasma proteins eluted, b) 25-minute linear gradient to 30% A/70% B during which AR177 elutes, c) five-minute Socratic run at 30% A/70% B. d) one-minute linear gradient to 100% B. e) two-minute run at 100% B for column clean-up, and fl two-minute linear gradient to 70% A/30% B for the step in the HPLC clean-up. The high pH (12) of the elusion buffers was necessary to dissociate AR177 from tissue constituents, which bind AR177 tightly around physiological pH. AR177 is completely stable at pH 12. This method can clearly distinguish between the full length AR177 and n-1, n-2, etc. species, which are potential metabolic products. The ultraviolet detection wavelength was 260 nm. The flow rate was 0.5 mL/minute in all steps. Column clean up between runs was performed by a 500 pL bolus injection of 0.1 M Tris base, 2 M NaCl, pH 10.5, followed by: a) ten-minute linear gradient to 60% A/40% B. b) one-minute linear gradient to 100% B. c) a three-minute isocratic run at 100% B and d) one-minute linear gradient to 80% A/20% B.
A standard curve was generated by spiking AR177 into cynomolgus monkey plasma in order to achieve concentrations of 0.04 to 128 μ/mL. The plasma standards and unspiked plasma (control) were run on the anion-exchange HPLC column using e above conditions. The Waters Millennium software was used to determine the area under the peak for each AR177 standard at 260 nm. The HPLC peak area versus AR177 concentration was plotted using Cricket Graph III 1.5.1 software. There were one to three HPLC replicate runs per AR177 standard. The limit of quantitation was 25 ng/mL (50 pL injection), whereas the limit of detection was 5 ng/mL (50 pL injection). […]

The next series can be described thus: in vitro. As to conditions: human.
For series [4], the system named is CD4- and gp120-mediated cell fusion. The series can be described thus: cells. It is filed as cell-based.

pIC50: −log10 of the molar value. Read-outs that look alike come from different tables or passages of the source.

T1 sequence (P05896 1156-1448): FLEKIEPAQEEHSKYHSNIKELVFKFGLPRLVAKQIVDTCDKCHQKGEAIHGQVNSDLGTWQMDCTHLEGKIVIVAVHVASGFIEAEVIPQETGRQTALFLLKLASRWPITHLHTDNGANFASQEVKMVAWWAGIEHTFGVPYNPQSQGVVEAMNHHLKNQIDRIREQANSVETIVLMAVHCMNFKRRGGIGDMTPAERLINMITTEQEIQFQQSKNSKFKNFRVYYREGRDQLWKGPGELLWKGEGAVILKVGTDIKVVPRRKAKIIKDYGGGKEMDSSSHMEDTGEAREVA

For the molecule “5′-gtggtgggtgggtgggt-3′ (GTGGTGGGTGGGTGGGT; phosphorothioate termini, further chemistry not given here) [T30177, pPT version of parent compound I100-15, 17 mer]”, the IC50 virus-induced cytopathogenicity is over 200 µg/mL in the series on Vaccinia virus (Vaccinia virus), over 50 µg/mL in the series on Junin virus (Junin virus), over 200 µg/mL in series [1] (Vesicular Stomatitis virus) and over 200 µg/mL in the series with RSV (A2) (RSV (A2)). Moreover, the “MCC minimum concentration altering normal cell morphology” value in the series with Vaccinia virus (Vaccinia virus assay) was 400 μg/mL; in the series with Junin virus (Junin virus assay) it was over 50 μg/mL; in series [1] (Vesicular Stomatitis virus assay), 400 μg/mL; in the series with RSV (A2) (RSV (A2) assay), over 400 μg/mL. Besides, the “initial volume of distribution” value in series [2] (0.75 mg/kg) worked out at 0.16 ± 0.05 L/kg; in series [2] (3 mg/kg) it was 0.08 ± 0.00 L/kg. Also, the “steady-state volume of distribution” value amounted to 0.14 ± 0.05 L/kg in [2] (0.75 mg/kg) and 0.05 ± 0.03 L/kg in [2] (3 mg/kg). Moreover, the pIC50 (in general, the IC50 on a negative log10 scale, so that one unit is a factor of ten) with SIV integrase is 6.38. Further, the initial plasma half-life in series [3] lay within 20 to 30 min. Moreover, the “initial volume of distribution (Vd) of the three doses” value in series [3] was 200 to 248 mL. Moreover, the metabolites in plasma result in series [3] was “No metabolites”. The terminal plasma half-life result in series [3] is given as “approximately 24 hours”. The values for the Vd in series [3] (5 mg/kg), in series [3] (20 mg/kg) and in series [3] (50 mg/kg) were 247.6 ± 21.4 mL, 184.5 ± 14.3 mL and 200.7 ± 56.4 mL, respectively. The “AR177 plasma (CMAX)” value in [3] (5 mg/kg) stood at 83.2 ± 7.2 µg/mL; in series [3] (20 mg/kg), 397.8 ± 30.8 µg/mL; in [3] (50 mg/kg) it was 804.7 ± 226.3 µg/mL.

Take `Cc1cn([C@H]2C[C@H](N=[N+]=[N-])[C@@H](CO)O2)c(=O)[nH]c1=O` [AZT, 3′-azido-3′-deoxythymidine]: the CC50 in “in vitro” was about 10000 nM.

With “5′-gtggtgggtgggtgggt-3′ [T30177] (GTGGTGGGTGGGTGGGT; phosphorothioate termini, further chemistry not given here)”, the “fusion IC50 relative to virus infection assay IC50” value in [4] is listed as “approximately 100 fold”. The pIC50 in [4] (read-out: IC50 CD4- and gp120-mediated cell fusion) was 6.00. The IC50 virus-induced cytopathogenicity with Semliki forest virus (Semliki forest virus) was over 200 µg/mL. Moreover, in the series with Semliki forest virus (Semliki forest virus assay), the “MCC minimum concentration altering normal cell morphology” value is “≧200 μg/mL”.
